Measured values: patent US9156796B2, “Benzoimidazole-carboxylic acid amide derivatives as APJ receptor modulators” (SANOFI, priority 2013, dated 2015)

Biological target: T1, human apelin receptor (Homo sapiens, UniProt P35414)
T1 construct: expressed in transfected cells
T1 sequence (P35414 1-380): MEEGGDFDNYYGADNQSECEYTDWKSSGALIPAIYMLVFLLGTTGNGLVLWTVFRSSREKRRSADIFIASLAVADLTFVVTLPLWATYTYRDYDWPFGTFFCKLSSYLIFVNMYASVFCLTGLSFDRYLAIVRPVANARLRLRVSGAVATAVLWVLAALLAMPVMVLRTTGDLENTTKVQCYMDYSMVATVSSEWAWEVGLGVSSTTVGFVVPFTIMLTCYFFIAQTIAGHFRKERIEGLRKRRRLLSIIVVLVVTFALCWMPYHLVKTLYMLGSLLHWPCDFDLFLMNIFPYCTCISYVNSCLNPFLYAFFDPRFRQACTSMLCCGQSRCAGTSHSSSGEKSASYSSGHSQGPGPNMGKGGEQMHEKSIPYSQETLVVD
Test: Determination of agonism on the human apelin receptor by a calcium fluorescence assay (FLIPR)
Format: cell-based
Settings: HEK293 cells stably transfected with human apelin receptor and Giaq protein, Fluo-4 calcium fluorescence, read-out: EC50 (APJ agonism)
In short: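 Agonist EC50s come from peak intracellular calcium transients recorded by FLIPR Tetra, scaled to the 1 μM apelin-13 maximum per plate. Test system: HEK293 stably transfected with human apelin receptor plus Giaq, Fluo-4-loaded (4 μM, 1 h, 37 °C, pH 7.4 buffer with probenecid); ≥7 concentrations, triplicates.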

EC50 [µM] | SMILES
2.72 | CCC(CC)n1c(Cc2cccs2)nc2cc(C(=O)N[C@@H](CC(C)C)C(=O)NCc3ccc(N(C)C)cc3)ccc21 [Example 266, 1-(1-Ethyl-propyl)-2-thiophen-2-ylmethyl-1H-benzoimidazole-5-carboxylic acid [(S)-1-(4-dimethylamino-benzylcarbamoyl)-3-methyl-butyl]-amide]
0.383 | CCC(CC)n1c(Cc2cccs2)nc2cc(C(=O)N[C@@H](CC(C)C)C(=O)NCCN(C)C)ccc21 [Example 267, 1-(1-Ethyl-propyl)-2-thiophen-2-ylmethyl-1H-benzoimidazole-5-carboxylic acid [(S)-1-(2-dimethylamino-ethylcarbamoyl)-3-methyl-butyl]-amide]
0.552 | CCC(CC)n1c(Cc2cccs2)nc2cc(C(=O)N[C@@H](CC(C)C)C(=O)NCCOC)ccc21 [Example 268, 1-(1-Ethyl-propyl)-2-thiophen-2-ylmethyl-1H-benzoimidazole-5-carboxylic acid [(S)-1-(2-methoxy-ethylcarbamoyl)-3-methyl-butyl]-amide]
18.5 | CCC(CC)n1c(Cc2cccs2)nc2cc(C(=O)N[C@@H](CC(C)C)C(=O)N3CCN(c4cccc(C(F)(F)F)c4)CC3)ccc21 [Example 269, 1-(1-Ethyl-propyl)-2-thiophen-2-ylmethyl-1H-benzoimidazole-5-carboxylic acid {(S)-3-methyl-1-[4-(3-trifluoromethyl-phenyl)-piperazine-1-carbonyl]-butyl}-amide]
10.8 | CCC(CC)n1c(Cc2cccs2)nc2cc(C(=O)N[C@@H](CC(C)C)C(=O)N3CCN(c4ccc(F)cc4)CC3)ccc21 [Example 270, 1-(1-Ethyl-propyl)-2-thiophen-2-ylmethyl-1H-benzoimidazole-5-carboxylic acid {(S)-1-[4-(4-fluoro-phenyl)-piperazine-1-carbonyl]-3-methyl-butyl}-amide]
3.26 | CCC(CC)n1c(Cc2cccs2)nc2cc(C(=O)N[C@@H](CC(C)C)C(=O)N3CCN(Cc4ccccc4)CC3)ccc21 [Example 271, 1-(1-Ethyl-propyl)-2-thiophen-2-ylmethyl-1H-benzoimidazole-5-carboxylic acid [(S)-1-(4-benzyl-piperazine-1-carbonyl)-3-methyl-butyl]-amide]
2.77 | CCC(CC)n1c(Cc2cccs2)nc2cc(C(=O)N[C@@H](CC(C)C)C(=O)N3CCN(CC(C)C)CC3)ccc21 [Example 272, 1-(1-Ethyl-propyl)-2-thiophen-2-ylmethyl-1H-benzoimidazole-5-carboxylic acid [(S)-1-(4-isobutyl-piperazine-1-carbonyl)-3-methyl-butyl]-amide]
12.6 | CCC(CC)n1c(Cc2cccs2)nc2cc(C(=O)N[C@@H](CC(C)C)C(=O)N3CCCN(Cc4c(F)cccc4Cl)CC3)ccc21 [Example 274, 1-(1-Ethyl-propyl)-2-thiophen-2-ylmethyl-1H-benzoimidazole-5-carboxylic acid {(S)-1-[4-(2-chloro-6-fluoro-benzyl)-[1,4]diazepane-1-carbonyl]-3-methyl-butyl}-amide]
0.242 | CCC(CC)n1c(Cc2cccs2)nc2cc(C(=O)N[C@@H](CC(C)C)C(=O)NCC3CCCN4CCCCC34)ccc21 (stereo partly drawn) [Example 275, 1-(1-Ethyl-propyl)-2-thiophen-2-ylmethyl-1H-benzoimidazole-5-carboxylic acid {(S)-3-methyl-1-[(octahydro-quinolizin-1-ylmethyl)-carbamoyl]-butyl}-amide]
2.1 | CCC(CC)n1c(Cc2cccs2)nc2cc(C(=O)N[C@@H](CC(C)C)C(=O)NCCCN3CCN(Cc4c(F)cccc4Cl)CC3)ccc21 [Example 277, 1-(1-Ethyl-propyl)-2-thiophen-2-ylmethyl-1H-benzoimidazole-5-carboxylic acid ((S)-1-{3-[4-(2-chloro-6-fluoro-benzyl)-piperazin-1-yl]-propylcarbamoyl}-3-methyl-butyl)-amide]
0.405 | CCC(CC)n1c(Cc2cccs2)nc2cc(C(=O)N[C@@H](CC(C)C)C(=O)NCCCN3CCN(CC)CC3)ccc21 [Example 278, 1-(1-Ethyl-propyl)-2-thiophen-2-ylmethyl-1H-benzoimidazole-5-carboxylic acid {(S)-1-[3-{4-ethyl-piperazin-1-yl)-propylcarbamoyl]-3-methyl-butyl}-amide]
2.27 | CCC(CC)n1c(Cc2cccs2)nc2cc(C(=O)N[C@@H](CC(C)C)C(=O)NCCCN3CCN(c4ccc(OC)cc4)CC3)ccc21 [Example 279, 1-(1-Ethyl-propyl)-2-thiophen-2-ylmethyl-1H-benzoimidazole-5-carboxylic acid ((S)-1-{3-[4-(4-methoxy-phenyl)-piperazin-1-yl]-propylcarbamoyl}-3-methyl-butyl)-amide]
0.219 | CCC(CC)n1c(Cc2cccs2)nc2cc(C(=O)N[C@@H](CC(C)C)C(=O)N3CCC(N4CCN(C)CC4)CC3)ccc21 [Example 280, 1-(1-Ethyl-propyl)-2-thiophen-2-ylmethyl-1H-benzoimidazole-5-carboxylic acid {(S)-3-methyl-1-[4-(4-methyl-piperazin-1-yl)-piperidine-1-carbonyl]-butyl}-amide]
1.21 | CCC(CC)n1c(Cc2cccs2)nc2cc(C(=O)N[C@@H](CC(C)C)C(=O)N3CCC(N4CCCC(C)C4)CC3)ccc21 (stereo partly drawn) [Example 281, 1-(1-Ethyl-propyl)-2-thiophen-2-ylmethyl-1H-benzoimidazole-5-carboxylic acid [(S)-3-methyl-1-(3-methyl-[1,4′]bipiperidinyl-1′-carbonyl)-butyl]-amide]
0.43 | CCC(CC)n1c(Cc2cccs2)nc2cc(C(=O)N[C@@H](CC(C)C)C(=O)N3CCC(N4CCC(C)CC4)CC3)ccc21 [Example 282, 1-(1-Ethyl-propyl)-2-thiophen-2-ylmethyl-1H-benzoimidazole-5-carboxylic acid [(S)-3-methyl-1-(4-methyl-[1,4′]bipiperidinyl-1′-carbonyl)-butyl]-amide]
4.5 | CCC(CC)n1c(Cc2cccs2)nc2cc(C(=O)N[C@@H](CC(C)C)C(=O)Nc3ccc(CN4CCC(C)CC4)cc3)ccc21 [Example 283, 1-(1-Ethyl-propyl)-2-thiophen-2-ylmethyl-1H-benzoimidazole-5-carboxylic acid {(S)-3-methyl-1-[4-(4-methyl-piperidin-1-ylmethyl)-phenylcarbamoyl]-butyl}-amide]
0.252 | CCCN(CCC)C1CCN(C(=O)[C@H](CC(C)C)NC(=O)c2ccc3c(c2)nc(Cc2cccs2)n3C(CC)CC)CC1 [Example 284, 1-(1-Ethyl-propyl)-2-thiophen-2-ylmethyl-1H-benzoimidazole-5-carboxylic acid [(S)-1-(4-dipropylamino-piperidine-1-carbonyl)-3-methyl-butyl]-amide]
0.295 | CCCN1CCC(NC(=O)[C@H](CC(C)C)NC(=O)c2ccc3c(c2)nc(Cc2cccs2)n3C(CC)CC)CC1 [Example 285, 1-(1-Ethyl-propyl)-2-thiophen-2-ylmethyl-1H-benzoimidazole-5-carboxylic acid [(S)-3-methyl-1-(1-propyl-piperidin-4-ylcarbamoyl)-butyl]-amide]
1.1 | CCC(CC)n1c(Cc2cccs2)nc2cc(C(=O)N[C@@H](CC(C)C)C(=O)NCC3CCCN(Cc4ccccc4)C3)ccc21 (stereo partly drawn) [Example 286, 1-(1-Ethyl-propyl)-2-thiophen-2-ylmethyl-1H-benzoimidazole-5-carboxylic acid {(S)-1-[(1-benzyl-piperidin-3-ylmethyl)-carbamoyl]-3-methyl-butyl}-amide]
0.408 | CCC(CC)n1c(Cc2cccs2)nc2cc(C(=O)N[C@@H](CC(C)C)C(=O)NCC(C)(C)CN3CCCCCC3)ccc21 [Example 287, 1-(1-Ethyl-propyl)-2-thiophen-2-ylmethyl-1H-benzoimidazole-5-carboxylic acid [(S)-1-(3-azepan-1-yl-2,2-dimethyl-propylcarbamoyl)-3-methyl-butyl]-amide]
0.512 | CCC(CC)n1c(Cc2cccs2)nc2cc(C(=O)N[C@@H](CC(C)C)C(=O)NC3CCN(Cc4c(OC)cccc4OC)CC3)ccc21 [Example 288, 1-(1-Ethyl-propyl)-2-thiophen-2-ylmethyl-1H-benzoimidazole-5-carboxylic acid {(S)-1-[1-(2,6-dimethoxy-benzyl)-piperidin-4-ylcarbamoyl]-3-methyl-butyl}-amide]
0.341 | CCC(CC)n1c(Cc2cccs2)nc2cc(C(=O)N[C@@H](CC(C)C)C(=O)NCCC3CCCCN3C)ccc21 (stereo partly drawn) [Example 289, 1-(1-Ethyl-propyl)-2-thiophen-2-ylmethyl-1H-benzoimidazole-5-carboxylic acid {(S)-3-methyl-1-[2-(1-methyl-piperidin-2-yl)-ethylcarbamoyl]-butyl}-amide]

SMILES | EC50 [µM]
CCC(CC)n1c(Cc2cccs2)nc2cc(C(=O)N[C@@H](CC(C)C)C(=O)NC3C[C@H]4CC[C@@H](C3)N4C)ccc21 (stereo partly drawn) [Example 273, 1-(1-Ethyl-propyl)-2-thiophen-2-ylmethyl-1H-benzoimidazole-5-carboxylic acid [(S)-3-methyl-1-((1R,5S)-8-methyl-8-aza-bicyclo[3.2.1]oct-3-ylcarbamoyl)-butyl]-amide] | 0.212
CCC(CC)n1c(Cc2cccs2)nc2cc(C(=O)N[C@@H](CC(C)C)C(=O)N[C@H]3C[C@H]4CC[C@@H](C3)N4C)ccc21 [Example 276, 1-(1-Ethyl-propyl)-2-thiophen-2-ylmethyl-1H-benzoimidazole-5-carboxylic acid [(S)-3-methyl-1-((3R)-8-methyl-8-aza-bicyclo[3.2.1]oct-3-ylcarbamoyl)-butyl]-amide] | 0.105
